Values of other authors, collected in patent publication US20250082651A1, “GANAXOLONE FOR USE IN TREATING GENETIC EPILEPTIC DISORDERS” (Marinus Pharmaceuticals, Inc., priority 2017, published 2025).

What was measured:
[1] = human plasma; cited from earlier work
[2] = tested on: patients with CDKL5-related epilepsy; details: CDKL5 deficiency disorder patients; cited from earlier work

SMILES	Half-life [1]	Responder rate at 12 months [2]
CC(=O)[C@H]1CC[C@H]2[C@@H]3CC[C@H]4C[C@H](O)CC[C@]4(C)[C@H]3CC[C@]12C [Allopregnanolone, 3α,5α-tetrahydroprogesterone, reference compound]	about 45 minutes	–
CCCC(CCC)C(=O)O [valproic acid]	–	9%
